Reference: patent US5747269A, “Determination of peptide motifs on MHC molecules” (Max-Planck-Gesellschaft zur Forderung der Wissenschaften …, priority 1991, dated 1998)
Where no end group is shown, it is not given here.

Assays:
K^d = details: natural influenza epitope; cited from earlier work

Sequence | match of the K^d-eluted self peptide sequence with the K^d-restricted consensus motif (H-2K^d) | K^d restriction / T cell epitope (K^d)
SYFPEITHI [SYFPEITHI (SEQ ID NO:2)] | matches the consensus motif | –
TYQRTRALV [TYQRTRALV (SEQ ID NO:1)] | – | natural K^d -restricted influenza epitope
